This data set in a line: Release of tryptophan from PEG-tryptophan: incubation in cleavage buffer at 37° C., HPLC analysis. In kind it is physicochemical. The following applies: detection at 280 nm. Here is the method:
A 0.10 mL aliquot of the PEGylated tryptophan reaction solution from Example 7 was diluted with 0.60 mL PBS buffer (0.10 M, NaCl, 0.10 M, Glycine 0.10M, pH 7.5) and incubated at 37° C. in an oven. Aliquots of 0.10 mL were withdrawn at incubation intervals of 2, 7, 32 and 102 hours, and were quenched with 10 μl of HCl (1.0 N diluted with 0.4 mL 20% acetonitrile containing 0.01% trifluoroacetic acid) for HPLC analysis (0.10 mL injection).
The above procedure was repeated using a cleavage solution with a pH of 8.5 and incubation intervals of 1, 6, 24, and 32 hours.
Both the PEG-tryptophan (Example 7) and cleavage samples were analyzed on C-18 reversed-phase HPLC with detection at 280 nm. The HPLC conditions are the following: C-18 column (Waters Symmetry, 4.6×250 mm), flow rate of 1.0 mL/min, gradient of acetonitrile 20% to 80% over 15 minutes followed by 10 minutes of washing at 80% acetonitrile (all contain 0.01% trifluoroacetic acid).

As to `N[C@@H](Cc1c[nH]c2ccccc12)C(=O)O` [Tryptophan], the “contents (HPLC integration area) of cleavage reaction” value came to 596 (pH 7.5 PBS with glycine 0.10 M, incubation time 2 hours); 647 (pH 7.5 PBS with glycine 0.10 M, incubation time 7 hours); 1329 (pH 7.5 PBS with glycine 0.10 M, incubation time 32 hours); 2955 (pH 7.5 PBS with glycine 0.10 M, incubation time 102 hours); 735 (pH 8.5 cleavage solution, incubation time 1 hour); 1183 (pH 8.5 cleavage solution, incubation time 6 hours). Moreover, the “contents (HPLC integration area) of cleavage reaction” value by setting is: (pH 8.5 cleavage solution, incubation time 24 hours) 2442; (pH 8.5 cleavage solution, incubation time 32 hours) 2498.
